Data published in paper PMC11505029, “Isatin Bis-Imidathiazole Hybrids Identified as FtsZ Inhibitors with On-Target Activity Against Staphylococcus aureus” (Antibiotics, 2024).
Where two headings read alike, the source gives them in different places.

Experiments:
[1] = tested on: S. aureus ATCC 25923; assay: broth microdilution antimicrobial activity, S. aureus reference strain; type: cell-based, Staphylococcus aureus; conditions: for IC50 / activity at 100 µM: Staphylococcus aureus; for IC50: ATCC25923, S. aureus ATCC 25923, mean [95% confidence interval]
Experimental: (§1) Reference bacterial strains of Staphylococcus aureus (ATCC 25923), Escherichia coli (ATCC 25922), and Candida albicans (ATCC 10231) were used in this study as Gram-positive, Gram-negative, and fungal models, respectively. These reference strains were purchased from the American Type Culture Collection (ATCC, Manassas, VA, USA); bacterial cultures were routinely grown at 37 °C on 5% blood agar plate, while fungal cultures on Sabouraud Dextrose Agar (Biolife Italiana S.r.l., Milan, Italy).
(§2) The dry powder of the isatin derivatives was resuspended in dimethylsulfoxide (DMSO) at 20 mM and used as stock solutions. For biological investigations, compounds were used in the range 100–0.78 µM, and the solvent in the corresponding percentage range.
(§3) The antimicrobial activity of the compounds was assessed by a well-established broth microdilution procedure in microtiter plates and in compliance with the Clinical and laboratory Standard Institute (CLSI) guidelines (Clinical and Laboratory Standards Institute, Wayne, PA, USA). In short, microbial inocula were prepared at 0.5 McFarland in PBS and, subsequently, bacterial suspensions were diluted 1:200 in Mueller–Hinton broth (Sigma-Aldrich, St. Louis, MO, USA), while fungal inoculum was diluted 1:20 in RPMI-1640 medium (Gibco®, ThermoFisher Scientific Inc., Waltham, MA, USA), containing 2% glucose and 0.3% levo-glutamine buffered to pH 7.0 with 0.165 M 3-(N-morpholino)propanesulfonic acid (MOPS). A total of 100 µL of these microbial suspensions were introduced in a 96-well microplate and incubated with 100 µL of the compounds, two-fold serially diluted in the range of 100–0.19 µM. Positive controls (microbial suspensions in regular media), negative controls (only compounds), and solvent controls (microbial suspensions incubated with DMSO dilutions) were included in the tests. The plate was incubated at 37 °C for 24 h, and subsequently, the optical density at 630 nm (OD630nm) was spectrophotometrically measured. Each experiment was carried out with three technical replicates (i.e., three wells per sample) and repeated at least two times for statistical power. […] IC50 values, corresponding to the concentration of the compound giving rise to an inhibition of growth of 50%, were obtained by interpolation on dose–response curves generated by plotting the percentages of growth inhibition, relative to the positive control (set to 100% of growth), as a function of the tested concentrations (on a logarithm scale). Statistical analysis was carried out using GraphPad Prism version 9.4.1 for Windows (GraphPad Software, San Diego, CA, USA, www.graphpad.com).

[2] = tested on: E. coli ATCC 25922; assay: broth microdilution antimicrobial activity, E. coli reference strain; type: cell-based, Escherichia coli; conditions: Escherichia coli
Experimental: as §1, §2, §3

[3] = tested on: C. albicans ATCC 10231; assay: broth microdilution antimicrobial activity, C. albicans reference strain; type: cell-based, Candida albicans; conditions: Candida albicans
Experimental: as §1, §2, §3

[4] = tested on: Vero cell line (ATCC CCL-81); assay: cell viability and proliferation assay (WST8/CCK-8); type: cell-based; conditions: for viability at 100 µM: Chlorocebus sabaeus, Vero, 48 h, read-out: Cell proliferation, Vero
Experimental: (§4) Vero cell line (ATCC CCL-81) was selected as the model system to assess the effect of the isatin hybrids on normal epithelial cells, and a previously established protocol was used with minor modifications. Briefly, cells were cultured in RPMI-1640 medium supplemented with 10% fetal bovine serum (FBS) (Carlo Erba Reagents, Milan, Italy), 100 U/mL penicillin, and 100 µg/mL streptomycin at 37 °C with 5% CO2. For experiments, cells were seeded into 96-well plates at 10^4 cells/well, and incubated at 37 °C for 24 h. Following washes with PBS, the cell monolayer was incubated with 100 µL of medium containing the 2-fold serial dilutions of the compounds. Both untreated cells and cells incubated with medium containing solvent dilutions were included in each experiment as controls. The cell viability was assessed by a WST8-based assay according to the manufacturer’s instructions (CCK-8, Cell Counting Kit-8, Dojindo Molecular Technologies, Rockville, MD, USA). After 48 h of incubation, culture medium was removed from each well, the monolayer was washed with PBS, and 100 µL of fresh medium containing 10 µL of CCK-8 solution were added. After 2 h at 37 °C, the OD450nm was read, and data were expressed as the percentage of the cell viability relative to the untreated controls. The CC50 was obtained from the corresponding dose–response curves generated, as previously reported for IC50 values.

[5] = as above; type: cell-based; conditions: African green monkey, Vero cells (ATCC CCL-81); Vero cells; mean [95% confidence interval]
Experimental: as §4

[6] = ATCC25923, 100 μM, growth relative to positive control, mean ± SD, read-out: Microbial growth, S. aureus
[7] = ATCC25922, 100 μM, growth relative to positive control, mean ± SD, read-out: Microbial growth, E. coli
[8] = ATCC10231, 100 μM, growth relative to positive control, mean ± SD, read-out: Microbial growth, C. albicans
[9] = 100 μM, viability relative to untreated controls, mean ± SD
[10] = ATCC25923, read-out: Microbial growth, S. aureus
[11] = ATCC25922, read-out: Microbial growth, E. coli
[12] = ATCC10231, read-out: Microbial growth, C. albicans

SMILES | activity at 100 µM [1, 6] [%] | activity at 100 µM [2, 7] [%] | activity at 100 µM [3, 8] [%] | viability at 100 µM [4, 9] [%] | also measured
CC1(C)S[C@@H]2[C@H](NC(=O)[C@H](N)c3ccccc3)C(=O)N2[C@H]1C(=O)O [AMP, ampicillin, reference compound] |  |  |  |  | IC50 [1]: 2.56 µM
COc1ccc2c(c1)C(c1c(Cl)nc3sc(C)cn13)(c1c(Cl)nc3sc(C)cn13)C(=O)N2 [Compound 3, 3,3-bis(6-Chloro-2-methylimidazo[2,1-b]thiazol-5-yl)-5-methoxyindolin-2-one] | 104 ± 8.5 | 97 ± 1.8 | 101 ± 3.6 | 90.3 ± 4.2 | 
Cc1cn2c(C3(c4c(Cl)nc5sc(C)cn45)C(=O)N(Cc4ccc(Cl)cc4)c4ccccc43)c(Cl)nc2s1 [Compound 4, 3,3-bis(6-Chloro-2-methylimidazo[2,1-b]thiazol-5-yl)-1-(4-chlorobenzyl)indolin-2-one] | 98.7 ± 0.8 | 99 ± 2.9 | 125 ± 6.3 | 116 ± 4 | 
O=C1Nc2ccc(F)cc2C1(c1c(Cl)nc2sccn12)c1c(Cl)nc2sccn12 [Compound 5, 3,3-bis(6-Chloroimidazo[2,1-b]thiazol-5-yl)-5-fluoroindolin-2-one] | < 30 | 98.9 ± 1.4 | 102 ± 1.5 | 43.5 ± 3.3 | SI (selectivity index, CC50/IC50) ([1]; CC50 Vero / IC50 S. aureus): 1.5; IC50 [1]: 75.6 µM; CC50 at 48 h [5]: 116 µM
Cc1cn2c(C3(c4c(Cl)nc5sc(C)cn45)C(=O)Nc4ccc(F)cc43)c(Cl)nc2s1 [Compound 6, 3,3-bis(6-Chloro-2-methylimidazo[2,1-b]thiazol-5-yl)-5-fluoroindolin-2-one] | 101 ± 10.1 | 98.7 ± 0.9 | 101 ± 1.9 | 38.2 ± 1.5 | 
O=C1Nc2cc(F)ccc2C1(c1c(Cl)nc2sccn12)c1c(Cl)nc2sccn12 [Compound 7, 3,3-bis(6-Chloroimidazo[2,1-b]thiazol-5-yl)-6-fluoroindolin-2-one] | 76.9 ± 1.5 | 106 ± 2.1 | 81.1 ± 0.7 | 88.2 ± 1.9 | 
Cc1cn2c(C3(c4c(Cl)nc5sc(C)cn45)C(=O)Nc4cc(F)ccc43)c(Cl)nc2s1 [Compound 8, 3,3-bis(6-Chloro-2-methylimidazo[2,1-b]thiazol-5-yl)-6-fluoroindolin-2-one] | 97.9 ± 2.8 | 99.8 ± 2.6 | 64.2 ± 4.3 | 75.2 ± 2.5 | 
O=C1Nc2cc(I)ccc2C1(c1c(Cl)nc2sccn12)c1c(Cl)nc2sccn12 [Compound 9, 3,3-bis(6-Chloroimidazo[2,1-b]thiazol-5-yl)-6-iodoindolin-2-one] | 80.2 ± 2.6 | 98.3 ± 2.5 | 63.7 ± 1.2 | 98.2 ± 1.5 | 
Cc1cn2c(C3(c4c(Cl)nc5sc(C)cn45)C(=O)Nc4cc(I)ccc43)c(Cl)nc2s1 [Compound 10, 3,3-bis(6-Chloro-2-methylimidazo[2,1-b]thiazol-5-yl)-6-iodoindolin-2-one] | 87.7 ± 2.5 | 94.3 ± 2.7 | 59.6 ± 0.4 | 78.8 ± 5.5 | 
Cc1cn2c(C3(c4c(Cl)nc5sc(C)cn45)C(=O)Nc4cc(OC(F)(F)F)ccc43)c(Cl)nc2s1 [Compound 12, 3,3-bis(6-Chloro-2-methylimidazo[2,1-b]thiazol-5-yl)-6-(trifluoromethoxy)indolin-2-one] | 110 ± 12.8 | 96.6 ± 1 | 118.1 ± 0.2 | 56.1 ± 1.1 | 
O=C1N(Cc2ccccc2)c2ccccc2C1(c1c(Cl)nc2sccn12)c1c(Cl)nc2sccn12 [Compound 13, 1-Benzyl-3,3-bis(6-chloroimidazo[2,1-b]thiazol-5-yl)indolin-2-one] | 92 ± 4 | 96.2 ± 4 | 113.7 ± 0.7 | 56.8 ± 0.1 | Cell proliferation, Vero [4, 9]: less active
Cc1cn2c(C3(c4c(Cl)nc5sc(C)cn45)C(=O)N(Cc4ccccc4)c4ccccc43)c(Cl)nc2s1 [Compound 14, 1-Benzyl-3,3-bis(6-chloro-2-methylimidazo[2,1-b]thiazol-5-yl)indolin-2-one] | 107 ± 3.9 | 99 ± 0.4 | 116 ± 1.2 | 104 ± 1.9 | 
O=C1N(CC=Cc2ccccc2)c2ccccc2C1(c1c(Cl)nc2sccn12)c1c(Cl)nc2sccn12 [Compound 15, 3,3-bis(6-Chloroimidazo[2,1-b]thiazol-5-yl)-1-cinnamylindolin-2-one] | < 30 | 69.5 ± 1.8 | 60.7 ± 1.7 | 101 ± 1.5 | IC50 [1]: 90.1 µM; CC50 at 48 h [5]: > 100 µM
Cc1cn2c(C3(c4c(Cl)nc5sc(C)cn45)C(=O)N(CC=Cc4ccccc4)c4ccccc43)c(Cl)nc2s1 [Compound 16, 3,3-bis(6-Chloro-2-methylimidazo[2,1-b]thiazol-5-yl)-1-cinnamylindolin-2-one] | 69.1 ± 4.3 | 69.2 ± 0.9 | 60.3 ± 1.1 | 93.3 ± 1.9 | 
O=C1Nc2cccc(C(F)(F)F)c2C1(O)c1c(Cl)nc2sccn12 (centres unmarked) [Compound 17, 3-(6-Chloroimidazo[2,1-b]thiazol-5-yl)-3-hydroxy-4-(trifluoromethyl)indolin-2-one] |  |  |  |  | activity at 100 µM [1, 10]: 149 ± 3.8%; activity at 100 µM [2, 11]: 104 ± 1.6%; activity at 100 µM [3, 12]: 132 ± 3.9%; viability at 100 µM [4]: 103.1 ± 1%
Cc1cn2c(C3(O)C(=O)Nc4cccc(C(F)(F)F)c43)c(Cl)nc2s1 (centres unmarked) [Compound 18, 3-(6-Chloro-2-methylimidazo[2,1-b]thiazol-5-yl)-3-hydroxy-4-(trifluoromethyl)indolin-2-one] |  |  |  |  | activity at 100 µM [1, 10]: 101 ± 3.1%; activity at 100 µM [2, 11]: 109 ± 3.5%; activity at 100 µM [3, 12]: 97.1 ± 0.9%; viability at 100 µM [4]: 93.1 ± 2.9%
O=C1Nc2cccc(I)c2C1(O)c1c(Cl)nc2sccn12 (centres unmarked) [Compound 19, 3-(6-Chloroimidazo[2,1-b]thiazol-5-yl)-3-hydroxy-4-iodoindolin-2-one] |  |  |  |  | activity at 100 µM [1, 10]: 148 ± 4.8%; activity at 100 µM [2, 11]: 95.2 ± 2.6%; activity at 100 µM [3, 12]: 131 ± 7.5%; viability at 100 µM [4]: 98.9 ± 2.6%
Cc1cn2c(C3(O)C(=O)Nc4cccc(I)c43)c(Cl)nc2s1 (centres unmarked) [Compound 20, 3-(6-Chloro-2-methylimidazo[2,1-b]thiazol-5-yl)-3-hydroxy-4-iodoindolin-2-one] |  |  |  |  | activity at 100 µM [1, 10]: 104 ± 4%; activity at 100 µM [2, 11]: 98 ± 1.3%; activity at 100 µM [3, 12]: 108 ± 2.7%; viability at 100 µM [4]: 101 ± 2.4%
COc1cccc2c1C(=O)c1c(O)c3c(c(O)c1C2=O)C[C@@](O)(C(=O)CO)C[C@@H]3O[C@H]1C[C@H](N)[C@H](O)[C@H](C)O1 [DOX, doxorubicin, reference compound] |  |  |  |  | CC50 at 48 h [5]: 70.6 µM
CNC(C)C1CCC(N)C(OC2C(N)CC(N)C(OC3OCC(C)(O)C(NC)C3O)C2O)O1 (centres unmarked) [GMN, gentamicin, reference compound] |  |  |  |  | IC50 [1]: 4 µM
